The test system of test [1] is A-375. Briefly: Antiproliferative activity against human A-375 cells assessed as reduction in cell viability incubated for 72 hrs by MTT assay. In kind it is functional, cell-based.
Another test has as its system HaCaT. Kind of test: Antiproliferative activity against human HaCaT cells assessed as reduction in cell viability incubated for 72 hrs by MTT assay. In kind it is functional, cell-based. On the technique in general: Tetrazolium dyes change colour on reduction, which living cells bring about.
Test [2] relates to A-375. Briefly: Induction of apoptosis in human A-375 cells assessed as increase in caspase-3 activity at 50 nM incubated for 24 hrs. In kind it is functional, cell-based.
In test [3] the test system is A-375. Briefly: Inhibition of cell migration in human A-375 cells assessed as reduction in cell numbers in wound area at 5 nM incubated for 72 hrs by methyl green staining based scratch assay. In kind it is functional.
Test [4] deals with A-375. Briefly: Inhibition of cell migration in human A-375 cells assessed as decrease in number of cell migration into lower compartment at 50 nM measured after 16 hrs. It counts as functional, cell-based.

Active and inactive are the calls of the source. The calls are words filed in the database; no cut-off is given here. Square brackets hold non-standard residues; d marks the D form. Peptide text beside a SMILES is read from it. ξ: configuration not given here. Thr(3ξ) = CC(O)[C@H](N)C(=O)O; NMeV = CN[C@H](C(=O)O)C(C)C; NMeA = CN[C@@H](C)C(=O)O; Sar = CNCC(=O)O

In the case of `CC(C)[C@@H]1NC(=O)[C@H](C(C)C)N(C)C(=O)[C@H]([C@@H](C)O)NC(=O)[C@H](C(C)C)N(C)C(=O)[C@H](C(C)C)NC(=O)[C@H](C(C)C)N(C)C(=O)[C@H](C(C)C)NC(=O)[C@H](C(C)C)N(C)C(=O)[C@H](C(C)C)NC(=O)[C@H](C(C)C)N(C)C(=O)[C@H](C)NC(=O)[C@@H]([C@@H](C)O)N(C)C(=O)[C@H](C(C)C)NC(=O)[C@@H]2CCCN2C(=O)[C@H](C)NC(=O)[C@H](C)N(C)C(=O)[C@H](C(C)C)N(C)C(=O)CN(C)C1=O`, the Activity result with A-375 [1] and in the test on HaCaT was “Dose-dependent-effect” throughout. The outcome in the test on A-375 [2] was Active. For the same compound, the inhibition result in the test with A-375 [3] is “Active; Significant Effect Observed”. Moreover, in the test on A-375 [4], the inhibition result was “Active”.

`CC(C)[C@@H]1NC(=O)[C@H](C(C)C)N(C)C(=O)[C@H](C)NC(=O)[C@H](C(C)C)N(C)C(=O)[C@H](C(C)C)NC(=O)[C@H](C(C)C)N(C)C(=O)[C@H](C(C)C)NC(=O)[C@H](C(C)C)N(C)C(=O)[C@H](C(C)O)NC(=O)[C@H](C(C)C)N(C)C(=O)[C@H](C)NC(=O)[C@H](C(C)C)N(C)C(=O)[C@H](C)NC(=O)CN(C)C(=O)[C@H](C(C)C)NC(=O)[C@H](C)N(C)C(=O)[C@H](C(C)C)N(C)C(=O)CN(C)C1=O` (stereo not given in full) (cyclo(A[NMeV]A[NMeV][Thr(3ξ)][NMeV]V[NMeV]V[NMeV]A[NMeV]V[Sar][NMeV][NMeA]V[Sar])): the Activity entry in the test on A-375 [1] and in the test with HaCaT was “Dose-dependent-effect” each time. Moreover, in the test on A-375 [2], the result was Active. Moreover, the inhibition entry with A-375 [3] was “Active; Significant Effect Observed”. Further, the inhibition entry with A-375 [4] was “Active”.

On to `CC(C)[C@@H]1NC(=O)[C@H](C(C)C)N(C)C(=O)[C@H](C)NC(=O)[C@H]([C@H](C)O)N(C)C(=O)[C@H](C(C)C)NC(=O)[C@@H]2CCCN2C(=O)[C@H](C(C)C)NC(=O)[C@H](C)N(C)C(=O)[C@H](C(C)C)N(C)C(=O)CN(C)C(=O)[C@H](C)NC(=O)[C@H](C(C)C)N(C)C(=O)[C@H](C)NC(=O)[C@H](C(C)C)N(C)C(=O)[C@H](C(C)C)NC(=O)[C@H](C(C)C)N(C)C(=O)[C@H](C(C)C)NC(=O)[C@H](C(C)C)N(C)C1=O`, for which the Activity result with A-375 [1] and with HaCaT was “Dose-dependent-effect” in each case. The result in the test on A-375 [2] was Active. In addition, in the test on A-375 [3], the inhibition result is listed as “Active; Significant Effect Observed”. In the test on A-375 [4], the inhibition entry is “Active”.

In the case of `CC(C)[C@@H]1NC(=O)[C@H](C(C)C)N(C)C(=O)[C@H](C)NC(=O)[C@H](C(C)C)N(C)C(=O)[C@H](C(C)C)NC(=O)[C@H](C(C)C)N(C)C(=O)[C@H](C(C)C)NC(=O)[C@H](C(C)C)N(C)C(=O)[C@H](CO)NC(=O)[C@H](C(C)C)N(C)C(=O)[C@H](C)NC(=O)[C@H](C(C)C)N(C)C(=O)[C@H](C)NC(=O)CN(C)C(=O)[C@H](C(C)C)NC(=O)[C@H](C)N(C)C(=O)[C@H](C(C)C)N(C)C(=O)CN(C)C1=O` (cyclo(A[NMeV]A[NMeV]S[NMeV]V[NMeV]V[NMeV]A[NMeV]V[Sar][NMeV][NMeA]V[Sar])), the Activity entry is “Dose-dependent-effect” in the test with A-375 [1], “Dose-dependent-effect” in the test with HaCaT and “Active; Significant Effect Was Not Observed” with A-375 [2]. Moreover, in the test with A-375 [3], the inhibition result is given as “Active; Significant Effect Observed”. Also, the inhibition result in the test on A-375 [4] was “Active”.

The values above are taken from ChEMBL document CHEMBL6103620, “Gymnopeptides C and D, Highly N-Methylated Fungal Cyclopeptides” (J Nat Prod, 2025).
